Test results published in ChEMBL document CHEMBL1155107, “Oxidative transformation of 2-acetylaminofluorene by a chemical model for cytochrome P450: A water-insoluble porphyrin and tert-butyl hydroperoxide” (Bioorg Med Chem, 2008).

Test system: Salmonella typhimurium
Assay: Toxicity in Salmonella Typhimurium TA1538 assessed as induction of mutagenicity using cytochrome P450 chemical model after 44 hrs by Ames test
Type: organism-based
Details: salmonella enterica subsp. enterica serovar typhimurium

`CC(=O)Nc1ccc2c(c1)Cc1ccccc1-2` [2-ACETYLAMINOFLUORENE] was tested, and the Activity was “Dose-dependent effect”.
